Tests used:
Type in all cases: biochemical, human/mammalian
Conditions in all cases: compound at 10 μM, read-out: % of activity respect of the control
ERK2 = ERK2 (Homo sapiens, UniProt P28482); assay: Kinase panel: ERK2
Method: (§1) The DDU kinase-focused compound set contains lead-like scaffolds that are designed to target protein kinases; they have kinase hinge binding motifs. Four of the 1H-imidazopyrazinones were screened against a human/mammalian kinase panel at the University of Dundee (http://www.kinase-screen.mrc.ac.uk) at a concentration of 10 μM. At the time of testing the panel contained 79 mammalian kinases selected to provide a broad coverage of the mammalian kinome (∼500 kinases in the human genome).[3] None of the compounds were active against any of the kinases at 10 μM.

RSK2 = RSK2 (Homo sapiens, UniProt P51812); assay: Kinase panel: RSK2
Method: as §1

MNK1 = MNK1 (Homo sapiens, UniProt Q9BUB5); assay: Kinase panel: MNK1
Method: as §1

CHK1 = target: T1, CHK1 (Homo sapiens, UniProt O14757); assay: Kinase panel: CHK1
T1 sequence (O14757 1-476): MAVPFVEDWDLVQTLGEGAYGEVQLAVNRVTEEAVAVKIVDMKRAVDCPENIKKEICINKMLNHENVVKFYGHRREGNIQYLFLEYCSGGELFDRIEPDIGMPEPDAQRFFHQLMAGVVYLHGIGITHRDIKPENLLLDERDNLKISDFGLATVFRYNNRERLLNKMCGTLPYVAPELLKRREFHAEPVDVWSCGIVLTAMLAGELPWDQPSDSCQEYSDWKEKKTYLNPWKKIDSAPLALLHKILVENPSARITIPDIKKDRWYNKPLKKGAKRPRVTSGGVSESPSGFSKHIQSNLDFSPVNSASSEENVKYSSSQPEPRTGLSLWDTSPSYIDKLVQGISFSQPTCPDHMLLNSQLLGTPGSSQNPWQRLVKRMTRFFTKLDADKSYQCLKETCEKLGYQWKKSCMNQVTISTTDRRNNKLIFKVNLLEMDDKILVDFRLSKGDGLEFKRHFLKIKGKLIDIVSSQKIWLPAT
Method: as §1

BRSK2 = target: T2, BRSK2 (Homo sapiens, UniProt Q8IWQ3); assay: Kinase panel: BRSK2
T2 sequence (Q8IWQ3 1-736): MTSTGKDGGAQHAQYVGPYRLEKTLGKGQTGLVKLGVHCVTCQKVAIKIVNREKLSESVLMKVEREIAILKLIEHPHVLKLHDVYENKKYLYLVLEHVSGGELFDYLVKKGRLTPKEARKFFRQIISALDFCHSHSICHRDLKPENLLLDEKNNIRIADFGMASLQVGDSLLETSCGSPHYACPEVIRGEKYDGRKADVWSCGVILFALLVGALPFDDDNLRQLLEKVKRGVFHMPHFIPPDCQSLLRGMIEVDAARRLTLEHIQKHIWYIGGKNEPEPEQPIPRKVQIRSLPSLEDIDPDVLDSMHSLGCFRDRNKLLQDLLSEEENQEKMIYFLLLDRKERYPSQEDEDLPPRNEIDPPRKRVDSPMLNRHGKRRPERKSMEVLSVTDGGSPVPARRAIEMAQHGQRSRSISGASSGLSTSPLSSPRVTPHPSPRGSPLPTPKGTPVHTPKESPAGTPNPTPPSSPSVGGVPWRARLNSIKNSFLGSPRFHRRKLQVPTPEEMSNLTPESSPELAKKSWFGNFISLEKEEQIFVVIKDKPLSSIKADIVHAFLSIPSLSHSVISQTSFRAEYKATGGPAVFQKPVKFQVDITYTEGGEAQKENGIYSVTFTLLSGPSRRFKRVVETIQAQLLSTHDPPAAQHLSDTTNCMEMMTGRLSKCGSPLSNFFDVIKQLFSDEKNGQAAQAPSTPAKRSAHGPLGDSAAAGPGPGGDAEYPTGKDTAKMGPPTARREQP
Method: as §1

PIM2 = PIM2 (Homo sapiens, UniProt Q9P1W9); assay: Kinase panel: PIM2
Method: as §1

IKK epsilon (14231) = target: T3, IKK epsilon (14231) (Homo sapiens, UniProt Q14164); assay: Kinase panel: IKK epsilon (14231)
T3 sequence (Q14164 1-716): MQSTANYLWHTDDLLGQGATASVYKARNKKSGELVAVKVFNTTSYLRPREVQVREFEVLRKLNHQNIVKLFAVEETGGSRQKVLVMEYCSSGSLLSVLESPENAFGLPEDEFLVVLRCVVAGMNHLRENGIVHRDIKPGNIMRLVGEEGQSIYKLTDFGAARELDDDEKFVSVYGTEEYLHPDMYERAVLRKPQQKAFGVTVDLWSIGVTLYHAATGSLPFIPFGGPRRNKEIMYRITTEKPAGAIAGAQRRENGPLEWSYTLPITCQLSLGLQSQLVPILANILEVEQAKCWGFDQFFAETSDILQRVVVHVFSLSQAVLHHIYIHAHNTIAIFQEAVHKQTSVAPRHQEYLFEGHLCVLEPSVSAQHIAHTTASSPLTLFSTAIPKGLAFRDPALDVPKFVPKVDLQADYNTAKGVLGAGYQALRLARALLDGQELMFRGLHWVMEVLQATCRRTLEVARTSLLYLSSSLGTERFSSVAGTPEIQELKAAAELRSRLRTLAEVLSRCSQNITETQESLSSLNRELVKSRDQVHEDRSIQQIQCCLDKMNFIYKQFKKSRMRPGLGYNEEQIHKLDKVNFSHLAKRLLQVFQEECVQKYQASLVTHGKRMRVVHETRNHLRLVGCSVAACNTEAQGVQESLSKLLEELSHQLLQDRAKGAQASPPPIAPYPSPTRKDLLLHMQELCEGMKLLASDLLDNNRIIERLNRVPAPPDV
Method: as §1

ERK2, sequence (P28482 whole entry): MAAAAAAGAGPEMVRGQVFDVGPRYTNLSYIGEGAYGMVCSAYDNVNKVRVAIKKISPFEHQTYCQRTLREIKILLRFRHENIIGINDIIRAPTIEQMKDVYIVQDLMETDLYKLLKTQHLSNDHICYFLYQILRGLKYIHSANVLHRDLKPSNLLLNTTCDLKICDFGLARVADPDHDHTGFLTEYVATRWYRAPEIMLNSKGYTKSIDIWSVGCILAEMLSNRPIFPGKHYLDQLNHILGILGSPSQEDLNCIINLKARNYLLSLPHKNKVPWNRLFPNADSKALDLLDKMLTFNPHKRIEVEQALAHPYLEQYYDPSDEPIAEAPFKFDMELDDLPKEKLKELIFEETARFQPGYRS
RSK2, sequence (P51812 whole entry): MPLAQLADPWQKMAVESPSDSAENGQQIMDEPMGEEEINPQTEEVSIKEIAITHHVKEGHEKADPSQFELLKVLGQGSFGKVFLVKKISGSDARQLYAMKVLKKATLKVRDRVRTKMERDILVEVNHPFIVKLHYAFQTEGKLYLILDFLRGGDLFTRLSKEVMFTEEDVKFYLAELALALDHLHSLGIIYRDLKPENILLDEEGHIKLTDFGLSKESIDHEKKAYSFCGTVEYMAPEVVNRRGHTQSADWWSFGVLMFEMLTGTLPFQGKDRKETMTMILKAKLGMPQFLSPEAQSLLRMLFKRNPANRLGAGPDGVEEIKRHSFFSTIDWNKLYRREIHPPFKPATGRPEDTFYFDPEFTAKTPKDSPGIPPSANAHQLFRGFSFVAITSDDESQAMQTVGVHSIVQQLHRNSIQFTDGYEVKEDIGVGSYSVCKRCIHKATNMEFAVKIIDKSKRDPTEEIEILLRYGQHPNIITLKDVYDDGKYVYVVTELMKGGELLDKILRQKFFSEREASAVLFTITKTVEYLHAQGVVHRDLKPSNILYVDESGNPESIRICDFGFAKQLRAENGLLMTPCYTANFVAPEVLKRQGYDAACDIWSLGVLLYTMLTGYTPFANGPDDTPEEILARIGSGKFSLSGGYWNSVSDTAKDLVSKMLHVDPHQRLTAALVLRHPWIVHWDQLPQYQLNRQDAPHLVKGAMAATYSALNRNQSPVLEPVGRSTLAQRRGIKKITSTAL
PIM2, sequence (Q9P1W9 whole entry): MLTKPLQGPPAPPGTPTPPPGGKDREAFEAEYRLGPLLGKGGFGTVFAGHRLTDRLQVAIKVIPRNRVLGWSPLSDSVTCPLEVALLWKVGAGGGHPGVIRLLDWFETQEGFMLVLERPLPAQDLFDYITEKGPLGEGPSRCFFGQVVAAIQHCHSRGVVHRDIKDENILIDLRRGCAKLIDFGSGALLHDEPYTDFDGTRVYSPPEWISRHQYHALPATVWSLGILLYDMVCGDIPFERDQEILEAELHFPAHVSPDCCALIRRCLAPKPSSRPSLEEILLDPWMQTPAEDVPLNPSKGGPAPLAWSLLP
MNK1, sequence (Q9BUB5 whole entry): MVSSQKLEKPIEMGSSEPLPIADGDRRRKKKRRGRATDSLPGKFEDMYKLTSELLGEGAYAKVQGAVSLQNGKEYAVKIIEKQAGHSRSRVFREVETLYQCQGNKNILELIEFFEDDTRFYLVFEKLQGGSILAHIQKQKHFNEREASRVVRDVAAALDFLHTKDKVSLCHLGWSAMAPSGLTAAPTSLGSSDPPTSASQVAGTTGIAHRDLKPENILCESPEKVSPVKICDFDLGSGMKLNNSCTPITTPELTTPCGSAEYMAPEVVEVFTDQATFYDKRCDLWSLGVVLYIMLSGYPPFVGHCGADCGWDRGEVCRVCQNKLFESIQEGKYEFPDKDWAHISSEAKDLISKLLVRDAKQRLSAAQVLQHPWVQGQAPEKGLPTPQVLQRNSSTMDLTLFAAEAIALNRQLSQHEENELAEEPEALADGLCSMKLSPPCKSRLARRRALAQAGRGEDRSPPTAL

Row | SMILES | remaining activity at 10 µM (ERK2) [%] | remaining activity at 10 µM (RSK2) [%] | remaining activity at 10 µM (MNK1) [%] | remaining activity at 10 µM (CHK1) [%] | remaining activity at 10 µM (BRSK2) [%] | remaining activity at 10 µM (PIM2) [%] | remaining activity at 10 µM (IKK epsilon (14231)) [%]
1 | CC(c1ccccc1)n1c(=O)[nH]c2ncc(-c3ccc(F)cc3)nc21 (stereo not shown) [Compound 1] | 65 | 110 | 83 | 100 | 82 | 113 | 124
2 | O=c1[nH]c2ncc(-c3ccc(F)cc3)nc2n1CC1CC1 [Compound 10] | 84 | 113 | 93 | 90 | 90 | 111 | 103
3 | O=c1[nH]c2ncc(-c3ccc(F)cc3)nc2n1C1CCCCC1 [Compound 12, 1-Cyclohexyl-6-(4-fluorophenyl)-1H-imidazo[4,5-b]pyrazin-2(3H)-one] | 41 | 104 | 93 | 96 | 100 | 111 | 98
4 | C[C@H](c1ccccc1)n1c(=O)[nH]c2ncc(-c3ccccc3)nc21 [Compound 14, (R)-6-Phenyl-1-(1-phenylethyl)-1H-imidazo[4,5-b]pyrazin-2(3H)-one] | 121 | 101 | 76 | 94 | 72 | 96 | 87
